The record followed here is patent US20240174642A1, “HETEROCYCLIC COMPOUNDS CAPABLE OF ACTIVATING STING” (Boehringer Ingelheim International GmbH, priority 2022, published 2024).

The test system of one assay is dog STING (dSTING). Kind of assay: Dog differential scanning fluorimetry (DSF) assay, thermal shift of dog STING protein. In kind it is binding. As to conditions: 100 μM compound, 3 μM recombinant dog STING (residues 149 to 375), 5× SYPRO Orange, 2% DMSO. From the text: The protein used for the biophysical experiments was a recombinant dog STING protein comprising its cytosolic cGAMP binding ectodomain. A codon optimized DNA sequence (for expression in Escherichia coli) encoding amino acid residues 149 to 375 of dog STING was synthesized by GeneArt (Regensburg, Germany) and inserted into a pET17b E. coli expression vector. The protein construct encodes an N-terminal 8× His-tag followed by tobacco etch virus protease (TEV) cleavage site and the above STING gene sequence. The resulting protein sequence for the used dog STING protein (SEQ ID No. 1) is listed below:
For expression of the above recombinant dog STING, the construct was transformed into E. coli BL21 DE3 strain and grown in shake flasks in LB-medium at 15° C. Expression was induced by addition of isopropyl β-D-1-thiogalactopyranoside to a final concentration of 1 mM and cultures shaken overnight. Cell pellets were centrifuged and stored at −70° C. until further use. Protein was purified by cell thawing in lysis buffer (20 mM TRIS-HCl, pH 8, 500 mM NaCl, 1 mM DTT, 0.5 mg/ml lysozyme, Complete Protease Inhibitor (Roche) and DNase (Roche)), followed by metal affinity purification using Ni-NTA resins and elution buffer consisting of 20 mM TRIS-HCl, pH 8, 500 mM NaCl, 1 mM DTT, 300 mM imidazole. Cleavage of the His-Tag using TEV-protease took place during dialysis in size exclusion buffer (20 mM TRIS-HCl, pH 8, 100 mM NaCl, 1 mM DTT) over night. To further purify the target protein a reverse Nickel affinity column was used and the flow through was applied to a size exclusion chromatography. The peak fraction was collected and concentrated to 5 mg/mL.
Dye fluorescence is quenched in aqueous environment and increases upon association of the dye with the hydrophobic parts of the unfolding protein. […] The inflection point of the curve represents the “melting” temperature of the protein (Tm) which is calculated numerically using the Boltzmann equation.
The thermal stability of the dog STING protein was measured in assay buffer containing 20 mM Tris, 150 mM NaCl at pH7.5. The assay uses 384-Well qPCR Plates (Catalog #781358, BRAND), Microseal®‘B’ Adhesive Seals for PCR Plates (Catalog #MSB-1001, BIO-RAD) and was run on a CFX384 Real-Time System (Bio-Rad). A DMSO stock solution of SYPRO orange (SIGMA 55692-500UL) was prepared. Compound stock solutions (10 mM in DMSO) were diluted 1:2 in DMSO to an intermediate compound concentration of 5 mM and then further diluted 1:40 in assay buffer resulting in a compound concentration of 125 μM and 2.5% DMSO. Fluorescent dye stock solution (5000× SYPRO Orange) was then mixed with target protein and buffer to a concentration of 15 μM Protein and 25× SYPRO Orange. 2 μl of this protein-dye-mixture was added to 8 μl compound solution. Final volume was 10 μL. 3-6 well positions were used as negative control (protein with 2% DMSO). The plates were prepared for duplicate measurement and centrifuged for 2 min at 1000 g. In the measurement, 160 cycles of 0.5° C. were used (temperature ramp 15 s/cycle, 15° C. to 95° C.).
Final Assay concentrations for compound characterization were 100 μM compound, 3 μM target protein, 5× SYPRO Orange, and 2% DMSO in 10 μl. All dispensing steps were performed using a HamiltonStar pipetting robot (Hamilton).
Dissociation curves were processed in Bio-Rad CFX Manager. Peak type was set to “negative”. Compound codes for screen were assigned in the plate layout.
Two replicates of TM measurements were averaged, and the standard deviation was calculated. In cases of SD>1.5° C. the measurement was repeated.
The melting point (Tm) obtained for STING protein alone was subtracted from T obtained for protein incubated with ligand to generate ΔTm values.

The next assay has as its system STING. Kind of assay: Dog whole blood (dWB) assay, IFNb secretion by ELISA. In kind it is cell-based. As to conditions: 4 h incubation at 37° C., % control relative to cGAMP stimulated control, read-out: EC50, cytokine secretion in dog whole blood (dWB) culture system as determined by canine Interferon-beta (IFNb) ELISA. The method, then: In this assay, freshly collected canine blood is incubated with a STING agonist, and interferon beta levels in the supernatant are quantified by ELISA. […] In accordance with the invention, a combination of a high dDSF and low dWB is especially favorable.
For the detection of STING activation in physiological environment dog whole blood (dWB) was stimulated by the cyclic dinucleotide cGAMP or a test compound. Pathway activity was monitored by measuring the IFNb production.
Compounds were delivered as 10 mM DMSO solution, diluted and transferred by using an Echo acoustic dispenser to the 384well assay plate (Greiner #781182), pre-filled with 10 μl 1× HBSS in each well (10× HBSS (+Ca/+Mg), #14065-049, Gibco). Typically, 8 concentrations were used with the highest concentration at 10 μM in the final assay volume followed by approximately 1:4 dilution steps. DMSO concentration was set to 0.1% in the final assay volume. The 384-well assay plate contained 20 test compounds and DMSO in control and cGAMP standard wells. The dog whole blood was collected as Na-Citrate blood (e.g., 3.8% in Monovettes from Sarstedt) and kept at 4° C. overnight until use in the assay. 80 μl of the whole blood samples were transferred to each well of the 384-well assay plates filled with compound/1×HBSS. Blood plates were kept at room temperature for 60 minutes and continuous shaking with 450 rpm, covered with the lid, but not sealed. A 10× cGAMP assay solution was diluted from a 2 mM stock solution in 1×HBSS immediately before use at room temperature. 10 μl of the 10× cGAMP/HBSS were added to the high control wells, whereas HBSS only was added to all compound and low control wells. After covering assay plates with the lid, blood plates were kept for a 4 h incubation at 37° C. in the incubator, without shaking. For the detection of IFNb in dog plasma the ELISA Kit for Canine Interferon Beta (Biotrend #SEA222Ca) was used. Whole blood assay plates were centrifuged at 1000 g for 10 minutes at 8° C. 40 μl of supernatant was transferred with a 96 well pipetting robotics from the 384 well whole blood plate to the corresponding 96 well ELISA plate, pre-filled with […] assay diluent in each well. Plates were sealed with microplate seals and kept at 4° C. overnight again. ELISA plates were brought to room temperature, followed by a 1 h incubation at 37° C. in the incubator. Detection Reagent A working solution was prepared by diluting Detection Reagent A 1:100 in Assay Reagent A. Liquid was then removed from the 96 well ELISA plate to add 100 μL Detection Reagent A working solution to each well. ELISA plates were covered with the plate sealer and incubated for 1 hour at 37° C. in the incubator. The 1× Wash buffer was prepared by diluting the 30× Wash Buffer Concentrate in H2O. Detection Reagent B working solution was prepared by diluting Detection Reagent B 1:100 in Assay Reagent B. The ELISA plates were washed three times with 350 μl wash buffer and afterwards inverted and blotted against absorbent paper to remove any liquid. 100 μL of Detection Reagent B working solution was added to each well of the ELISA plates, which are then covered with the plate sealer and incubated for 30 minutes at 37° C. in the incubator. After incubation the ELISA assay plates were washed five times with 350 μl wash buffer and were again inverted and blotted against absorbent paper to remove any remaining liquid. 90 μL of TMB Substrate was added to each well of the ELISA plates, which were then covered with the plate sealer and incubated for 15 minutes at 37° C. in the incubator. The reaction was stopped by adding 50 μL stop solution and absorbance was measured at 450 nm immediately.
For data evaluation and calculation, % control calculation of each well was based on the mean of high (cGAMP stimulated control) and mean of low (unstimulated control) controls by using the following standard 4 parameter logistic regression formula: […]

dog STING (dSTING), sequence (as listed by the source): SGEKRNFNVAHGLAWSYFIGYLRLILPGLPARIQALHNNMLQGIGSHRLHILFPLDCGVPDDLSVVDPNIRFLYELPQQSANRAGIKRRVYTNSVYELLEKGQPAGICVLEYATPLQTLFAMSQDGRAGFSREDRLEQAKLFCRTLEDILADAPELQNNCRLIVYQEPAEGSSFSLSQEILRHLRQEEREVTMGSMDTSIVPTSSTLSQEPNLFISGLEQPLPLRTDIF

Take “(1S,4R,5R)-2-(5-{2″,7-dimethyl-1H,2″H-[3,4″-biindazol]-1-yl}pyridin-2-yl)-2-azabicyclo[2.2.1]heptane-5-carboxylic acid and 1R,4S,5S)-2-(5-{2′,7-dimethyl-1H,2′H-[3,4′-biindazol]-1-yl}pyridin-2-yl)-2-azabicyclo[2.2.1]heptane-5-carboxylic acid [Example 5]”: in the assay with dog STING (dSTING), the “Delta TM, interaction with dog STING as determined by DSF (dDSF)” value turned out to be 33.5 °C. The EC50 in the assay on STING is 529 nM.
